# Assay results published in a melting point compilation (Tetko et al.; mined from patent text by program, amines drawn as free bases though some values may be those of a salt).
row,Compound,melting point
1,O[C@H]1c2cc(OCc3ccc4ccccc4c3)ccc2OC[C@H]1Oc1cccnc1 (relative stereo),156 to 157 °C
2,Clc1ccc2c(c1)N(c1ncnc3c(Cl)cccc13)CC2,190 °C
3,CCCc1nc(C)n2[nH]c(=O)nc2c1Br,221 °C
4,Cc1nc2c(n1C)C(=O)c1ccccc1C2=O,> 253 °C
5,Cc1ccsc1-c1ccc(C2(C)NC(=O)NC2=O)cc1 (stereo unspecified),201 to 202 °C
6,Cc1onc(O)c1-c1ccccc1[N+](=O)[O-],197 °C
7,OC(CCc1ccc2ccccc2c1)c1cnc2sc3c(n12)CCCCC3 (stereo unspecified),124 to 127 °C
8,Nc1cnc(NCC2CCCCC2)nc1O,180 °C
9,Cc1c(Cc2cccc(C(F)(F)F)c2)oc2c(-c3cccc(C(=O)NCCO)c3)cccc12,158 to 159 °C
10,CC(C)C1COC(c2ccccc2CO)=N1 (stereo unspecified),62 to 72 °C
11,c1ccc(CSc2ncccc2C2=NOCC2)cc1,97 to 98 °C
12,Cc1oc(-c2ccco2)nc1COc1ccc(C#N)cn1,105 to 106 °C
13,CC(C)c1nn(-c2ccccc2)c(-c2ccc(F)cc2)c1CO,138 to 140 °C
14,CSc1c(C)c(-c2cc(OS(=O)(=O)C(F)(F)F)c(Cl)cc2F)nn1C,54 to 56 °C
15,COc1ccc2c(c1)CN(C(=O)NO)N=C2Cc1c(Cl)cncc1Cl,155 to 158 °C
16,CC(C#N)(c1ccc(F)cc1)c1ccc(N2NCC(=O)NC2=O)cc1Cl (stereo unspecified),122 °C
17,CCOC(=O)c1ccc2c(O)c(C(=O)OCC)c(=O)n(C)c2n1,174 to 175 °C
18,O=[N+]([O-])c1cccc(OCCn2ccnc2)c1,52.5 to 55.5 °C
19,COc1cc2c(c(OC(C)=O)c1)C1CCC3(C)C(OC)CCC3C1CC2 (stereo unspecified),81 to 83 °C
20,CCN(CC)C(=O)CCC1CCN(Cc2cnc3cc(NC(=O)c4ccc(-c5ccc(F)cc5)cc4)c(C)cc3c2)CC1,150 to 154 °C
21,O=C(O)CCCCc1nn(-c2cccc(C(F)(F)F)c2)c2c1CCCC2,105 °C
22,CC(C)(C)NS(=O)(=O)c1cccc2c1C(O)CCC2 (stereo unspecified),100 to 111 °C
23,COc1ccc(-c2c(C)cc3c(O)cc(C)nn23)c(C)c1,234 to 237 °C
24,COc1cc2c3ccc(OC)c(OC)c3n(Cc3c(Cl)cccc3Cl)c2cc1OC,207 to 210 °C
25,O=C(O)CP(=O)(c1ccccc1)c1ccccc1,143 to 146 °C
26,CN1CCNC(=O)N1c1cc(Cl)cc(Cl)c1,150 to 151 °C

row,Compound,melting point
1,CC(C)C(NC(=O)[C@@H]1CCCN1C(=O)[C@@H](NC(=O)c1ccc(C(=O)N2CCOCC2)nc1)C(C)C)C(=O)C(F)(F)C(F)(F)F (stereo partly specified),111 to 112 °C
2,COc1cc2c(cc1Nc1ncc(Cl)c(N[C@@H]3CCCC[C@H]3NS(C)(=O)=O)n1)CCN(CCNC(C)=O)CC2,108 to 118 °C
3,Cc1ccc(C(=O)N[C@H](Cc2ccc(C(F)(F)F)cc2)[C@@H](O)c2ccc(F)cc2)c2ccccc12 (racemic),198 to 199 °C
4,CS(=O)CCN1CCC2(CC1)CC(=O)c1cc(NS(C)(=O)=O)ccc1O2 (stereo unspecified),181 to 183 °C
5,C=CCSc1cc(C(=O)O)cc(N)c1Oc1ccccc1,142 to 143 °C
6,CCCCn1c(=O)c(NC(=O)Nc2c(C(C)C)cccc2C(C)C)c(-c2cccc(OCCC)c2)c2cccnc21,154 to 156 °C
7,Cc1cccc2c1C(=O)N(C)Cc1c(I)ncn1-2,106 to 108 °C
8,O=C(NC1CCCCCCC1)NC1CCCCC1,194 °C
9,O=C(Nc1ccccc1)Nc1ccnc(F)c1,179 to 180 °C
10,Cc1cc(CCC2CCC(COc3ccc(C4=NCCO4)cc3)CC2)on1 (stereo unspecified),48 to 50 °C
11,CC(C)NCCOc1ccc(-c2nc3ccccc3c(=O)[nH]2)nc1-c1ccc(S(C)(=O)=O)cc1,188 to 189 °C
12,CCN(CCCCc1coc2c(OC)cccc12)C1COc2c(F)ccc(C(N)=O)c2C1 (stereo unspecified),112 to 118 °C
13,CCOC(=O)COc1ccc(N)cc1Cl,59 to 62 °C
14,Nc1ccc(Nc2c(CC3CC4C=CC3C4)cc(C(=O)O)cc2S(N)(=O)=O)cc1 (stereo unspecified),245 °C
15,CN1C(=O)C(NC(=O)Nc2ccc(Cl)c(Cl)c2)N=C(c2ccccc2)c2ccccc21 (stereo unspecified),274 to 276 °C
16,COc1cc2c(c3c1OC(C)(C)C3)C(c1ccn(Cc3ccc(C(=O)NCCO)cc3)c(=O)c1)=NC(C)(C)C2,220 to 222 °C
17,O=[N+]([O-])c1cc(-c2ccc(Cl)cc2)[nH]c1SC(F)(F)F,185 to 193 °C
18,CC(CCC(=O)O)C1CCC2C3=CC=C4C(C)(C)C(O)CCC4(C)C3CCC21C (stereo unspecified),210 to 213 °C
19,NS(=O)(=O)c1cccc(-c2cn(-c3nc(-c4ccc(F)cc4)cc(C(F)(F)F)n3)cn2)c1,260 °C
20,NS(=O)(=O)c1ccc2c(c1)C(=O)C1(CCOC1=O)O2 (stereo unspecified),202 to 215 °C
21,CCCCC(CC)COc1ccc(-c2c3ccc(O)cc3c(-c3ccc(OCC(CC)CCCC)cc3)c3ccc(O)cc23)cc1 (stereo unspecified),195 to 197 °C
22,O=C1C(=Cc2ccncc2)c2ccccc2N1c1ccccc1,160 to 162 °C
23,O=[N+]([O-])c1ccc(Sc2ncc[nH]2)cc1,207 to 209 °C
24,CC(C)(C)OC(=O)NCC1Cc2ccc(OCc3ccccc3)cc2C1 (stereo unspecified),95 to 98 °C
25,COC(=O)NC1CCc2sc(Cl)c(C(=O)CCC(=O)O)c2C1 (stereo unspecified),178 to 179 °C
